Data taken from patent publication US20240254118A1, “PRMT5 INHIBITORS AND USES THEREOF” (Gilead Sciences, Inc., priority 2022, published 2024).
Like-named read-outs stand apart in the source and are kept apart here.

How the values were obtained:
[1] = system: SDMA signal (PRMT5 inhibition) in HCT116 MTAP-deleted cells; assay: Symmetric di-methyl arginine image-based high content screen assay (SDMA assay), HCT116 MTAP-deleted; type: cell-based; details: for EC50: Homo sapiens, HCT-116, 72 h, read-out: EC50 (SDMA assay); for EC50 selectivity (SDMA assay): taken as HCT116 WT versus MTAP-deleted
Procedure: Symmetric di-methyl arginine image-based high content screen assay (SDMA assay) was performed in HCT116 WT and HCT116 MTAP-deleted cell lines to measure Symmetric Di-methyl Arginine (SDMA) signal reduction after selective PRMT5 inhibition in the MTAP-deleted cells.
Briefly, the same compound plates were generated as mentioned in the previous section of Cell viability assay on Day −1.
On Day 3, the cells were fixed by adding 45 μl of 8% neutralized formalin solution to each well using EL460 liquid dispenser 5 μl cassette and the cells were incubated for 30 minutes at room temperature. The formalin solution was washed off with […] phosphate buffered saline (dPBS), the 0.1% Triton X-100 solution in dPBS was used to permeabilize the cells for 15 minutes at room temperature. The triton solution was aspirated, 50 μl of Odyssey Blocking buffer+0.05% Tween20 was added and the plate was incubated at room temperature for 30 minutes.
The blocking solution was removed, a 20 μl of SDMA antibody (Cell Signaling Technology, Cat no. 13222) diluted 1:500 in Odyssey Blocking buffer+0.05% Tween20 was added and the plate was incubated at 4° C. overnight. Next day, the primary SDME antibody solution was washed from each well three times with 0.05% Tween20 in dPBS (PBST).
A 30 μl of the secondary antibody, a Goat anti-Rabbit Alexa Fluor Plus 488 (Invitrogen, Cat no. PIA32731) was diluted 1:500 in Odyssey Blocking buffer+0.05% Tween20 and the plate was incubated for 1.5 hours in dark at room temperature. The secondary antibody solution was removed, 30 μl of 5 mg/ml DAPI solution diluted 1:2000 in dPBS was added and the plate was incubated for 30 minutes in dark at room temperature. The DAPI solution was aspirated and the wells were washed six times with dPBS.
The SDMA signal and DAPI signal per cell were counted using a Cellomics CX7 LZR instrument reading under 488 and 405 nm laser, respectively. The SDMA signal was quantified by mean average intensity per cell from Alexa Fluor Plus 488 after the cell was defined with DAPI.

[2] = system: HCT116 MTAP-deleted cells; assay: Cell viability assay (CellTiter-Glo, 7 days), HCT116 MTAP-deleted; details: Homo sapiens, HCT-116, 168 h
[3] = SDMA assay, 3 days of treatment, cell line not given, taken as HCT116 MTAP-deleted

| SMILES | EC50 [1] | EC50 selectivity (SDMA assay) ([1]; SDMA assay) | CC50 [2] | EC50 [1, 3] |
| --- | --- | --- | --- | --- |
| CN(C(=O)Oc1ccccc1)N(Cc1ccc(C(F)(F)F)cn1)C(=O)c1ccc2nc(N)c3cnn(C)c3c2c1 [Example 14, Phenyl 2-(4-amino-1-methyl-1H-pyrazolo[4,3-c]quinoline-8-carbonyl)-1-methyl-2-((5-(trifluoromethyl)pyridin-2-yl)methyl)hydrazine-1-carboxylate] | 1 to 5 nM | 148 | < 100 nM |  |
| Cn1ncc2c(N)nc3ccc(C(=O)N(Cc4ccc(C(F)(F)F)c(F)c4)N4CCCC4=O)cc3c21 [Example 15, 4-amino-N-(3-fluoro-4-(trifluoromethyl)benzyl)-1-methyl-N-(2-oxopyrrolidin-1-yl)-1H-pyrazolo[4,3-c]quinoline-8-carboxamide] |  | 23 | < 100 nM | 1 to 5 nM |
| COc1ccc(CN(C(=O)c2ccc3nc(N)c4cnn(C)c4c3c2)N(C)C(C)=O)c(F)c1 [Example 16, N′-acetyl-4-amino-N-(2-fluoro-4-methoxybenzyl)-N′,1-dimethyl-1H-pyrazolo[4,3-c]quinoline-8-carbohydrazide] |  | 306 | < 100 nM | < 1 nM |
| Cn1ncc2c(N)nc3ccc(C(=O)N(Cc4ccc(C(F)(F)F)cn4)N4CC5(CCC5)OC4=O)cc3c21 [Example 17, 4-amino-1-methyl-N-(6-oxo-5-oxa-7-azaspiro[3.4]octan-7-yl)-N-[[5-(trifluoromethyl)-2-pyridyl]methyl]pyrazolo[4,3-c]quinoline-8-carboxamide] |  | 502 | < 100 nM | < 1 nM |
| COc1nc(C(F)(F)F)ccc1CN(C(=O)c1ccc2nc(N)c3cnn(C)c3c2c1)N(C)C(C)=O [Example 18, N′-acetyl-4-amino-N-[[2-methoxy-6-(trifluoromethyl)-3-pyridyl]methyl]-N′, 1-dimethyl-pyrazolo[4,3-c]quinoline-8-carbohydrazide] |  | 61 | < 100 nM | < 1 nM |
| COc1cc(C(F)(F)F)ccc1CN(C(=O)c1ccc2nc(N)c3cnn(C)c3c2c1)N(C)C(C)=O [Example 19, N′-acetyl-4-amino-N-[[2-methoxy-4-(trifluoromethyl)phenyl]methyl]-N′,1-dimethyl-pyrazolo[4,3-c]quinoline-8-carbohydrazide] |  | 93 | < 100 nM | < 1 nM |
| Cn1ncc2c(N)nc3ccc(C(=O)N(Cc4ccc(C(F)(F)F)cn4)N4CCOCC4)cc3c21 [Example 20, 4-amino-1-methyl-N-morpholino-N-((5-(trifluoromethyl)pyridin-2-yl)methyl)-1H-pyrazolo[4,3-c]quinoline-8-carboxamide] |  | 143 | < 100 nM | < 1 nM |
| Cn1ncc2c(N)nc3ccc(C(=O)N(Cc4ccc(C(F)(F)F)cn4)N4CCCC(F)(F)C4)cc3c21 [Example 21, 4-amino-N-(3,3-difluoro-1-piperidyl)-1-methyl-N-[[5-(trifluoromethyl)-2-pyridyl]methyl]pyrazolo[4,3-c]quinoline-8-carboxamide] |  | 90 | < 100 nM | < 1 nM |
| Cn1ncc2c(N)nc3ccc(C(=O)N(Cc4ccc(C(F)(F)F)cn4)N4CCC(F)(F)CC4)cc3c21 [Example 22, 4-amino-N-(4,4-difluoro-1-piperidyl)-1-methyl-N-[[5-(trifluoromethyl)-2-pyridyl]methyl]pyrazolo[4,3-c]quinoline-8-carboxamide] |  | 260 | < 100 nM | 1 to 5 nM |
| CN(c1ncccn1)N(Cc1ccc(C(F)(F)F)cn1)C(=O)c1ccc2nc(N)c3cnn(C)c3c2c1 [Example 23, 4-amino-N′, 1-dimethyl-N′-(pyrimidin-2-yl)-N-((5-(trifluoromethyl)pyridin-2-yl)methyl)-1H-pyrazolo[4,3-c]quinoline-8-carbohydrazide] |  | 18 | < 100 nM | < 1 nM |
| CN(c1ncccn1)N(Cc1ccc(C(F)(F)F)cn1)C(=O)c1ccc2nc(N)c3ccccc3c2c1 [Example 24, 6-amino-N′-methyl-N′-(pyrimidin-2-yl)-N-((5-(trifluoromethyl)pyridin-2-yl)methyl)phenanthridine-2-carbohydrazide] |  | 87 | < 100 nM | < 1 nM |
| CN(c1ccccn1)N(Cc1ccc(C(F)(F)F)cn1)C(=O)c1ccc2nc(N)c3cnn(C)c3c2c1 [Example 25, 4-amino-N′, 1-dimethyl-N′-(2-pyridyl)-N-[[5-(trifluoromethyl)-2-pyridyl]methyl]pyrazolo[4,3-c]quinoline-8-carbohydrazide] |  | 26 | < 100 nM | 1 to 5 nM |
| Cn1ncc2c(N)nc3ccc(C(=O)N(Cc4ccc(C(F)(F)F)cn4)N4CCCC4=O)cc3c21 [Example 26, 4-amino-1-methyl-N-(2-oxopyrrolidin-1-yl)-N-[[5-(trifluoromethyl)-2-pyridyl]methyl]pyrazolo[4,3-c]quinoline-8-carboxamide] |  | 85 | < 100 nM | 1 to 5 nM |
| Cn1ncc2c(N)nc3ccc(C(=O)N(Cc4ccc(C(F)(F)F)cn4)N4CCCC4)cc3c21 [Example 27, 4-amino-1-methyl-N-pyrrolidin-1-yl-N-[[5-(trifluoromethyl)-2-pyridyl]methyl]pyrazolo[4,3-c]quinoline-8-carboxamide] |  | 94 | < 100 nM | < 1 nM |
| Cn1ncc2c(N)nc3ccc(C(=O)N(Cc4ccc(C(F)(F)F)cn4)N4CCCCC4)cc3c21 [Example 28, 4-amino-1-methyl-N-(1-piperidyl)-N-[[5-(trifluoromethyl)-2-pyridyl]methyl]pyrazolo[4,3-c]quinoline-8-carboxamide] |  | 134 | < 100 nM | < 1 nM |
| Cn1ncc2c(N)nc3ccc(C(=O)N(Cc4ccc(C(F)(F)F)cn4)N4CCCCC4=O)cc3c21 [Example 29, 4-amino-1-methyl-N-(2-oxo-1-piperidyl)-N-[[5-(trifluoromethyl)-2-pyridyl]methyl]pyrazolo[4,3-c]quinoline-8-carboxamide] |  | 43 | < 100 nM | < 1 nM |
| Nc1nc2ccc(C(=O)N(Cc3ccc(C(F)(F)F)cn3)N3CCCCC3=O)cc2c2c1COC2 [Example 30, 4-amino-N-(2-oxo-1-piperidyl)-N-[[5-(trifluoromethyl)-2-pyridyl]methyl]-1,3-dihydrofuro[3,4-c]quinoline-8-carboxamide] |  | 101 | < 100 nM | < 1 nM |
| Cn1ncc2c(N)nc3ccc(C(=O)N(Cc4ccc(C(F)(F)F)cn4)N4CCC(C)(C)CC4=O)cc3c21 [Example 31, 4-amino-N-(4,4-dimethyl-2-oxo-1-piperidyl)-1-methyl-N-[[5-(trifluoromethyl)-2-pyridyl]methyl]pyrazolo[4,3-c]quinoline-8-carboxamide] |  | 323 | < 100 nM | 1 to 5 nM |
| CN1CCN(N(Cc2ccc(C(F)(F)F)cn2)C(=O)c2ccc3nc(N)c4cnn(C)c4c3c2)C1=O [Example 32, 4-amino-1-methyl-N-(3-methyl-2-oxo-imidazolidin-1-yl)-N-[[5-(trifluoromethyl)-2-pyridyl]methyl]pyrazolo[4,3-c]quinoline-8-carboxamide] |  | 74 | < 100 nM | < 1 nM |
| CC(=O)N(C)N(Cc1ccc(C(F)(F)F)cn1)C(=O)c1ccc2nc(N)c3cnn(C)c3c2c1 [Example 33, N′-acetyl-4-amino-N′, 1-dimethyl-N-[[5-(trifluoromethyl)-2-pyridyl]methyl]pyrazolo[4,3-c]quinoline-8-carbohydrazide] |  | 73 | < 100 nM | < 1 nM |
| CC(=O)N(C)N(Cc1ccc(C(F)(F)F)cn1)C(=O)c1cc2c(cc1F)nc(N)c1cnn(C)c12 [Example 34, N′-acetyl-4-amino-7-fluoro-N′, 1-dimethyl-N-[[5-(trifluoromethyl)-2-pyridyl]methyl]pyrazolo[4,3-c]quinoline-8-carbohydrazide] |  | 8 | < 100 nM | 1 to 5 nM |
| Cn1ncc2c(N)nc3ccc(C(=O)N(Cc4ccc(C(F)(F)F)cn4)N4Cc5ccccc5C4=O)cc3c21 [Example 35, 4-amino-1-methyl-N-(1-oxoisoindolin-2-yl)-N-[[5-(trifluoromethyl)-2-pyridyl]methyl]pyrazolo[4,3-c]quinoline-8-carboxamide] |  | 103 | < 100 nM | < 1 nM |
